In paper PMC11968843, “Sulphostin-inspired N-phosphonopiperidones as selective covalent DPP8 and DPP9 inhibitors” (Nature Communications, 2025):

Experiments:
Assay in all cases: Competitive ABPP / direct target identification with alkyne probe 9 in HEK293 cell lysates
Type in all cases: binding, H. sapiens
[1] = target: T1, HEK293 cell lysates (proteome-wide targets of probe 9) (Homo sapiens, UniProt P61247); conditions: protein RPS3A
T1 construct: endogenous in cells; host or cells: HEK293 cell lysate

[2] = target: T2, HEK293 cell lysates (proteome-wide targets of probe 9) (Homo sapiens, UniProt P49368); conditions: protein CCT3
T2 construct: endogenous in cells; host or cells: HEK293 cell lysate

[3] = target: T3, HEK293 cell lysates (proteome-wide targets of probe 9) (Homo sapiens, UniProt P30041); conditions: protein PRDX6
T3 construct: endogenous in cells; host or cells: HEK293 cell lysate

[4] = target: T4, HEK293 cell lysates (proteome-wide targets of probe 9) (Homo sapiens, UniProt P04406); conditions: protein GAPDH
T4 construct: endogenous in cells; host or cells: HEK293 cell lysate

[5] = target: T5, HEK293 cell lysates (proteome-wide targets of probe 9) (Homo sapiens, UniProt P63104); conditions: protein YWHAZ
T5 construct: endogenous in cells; host or cells: HEK293 cell lysate

[6] = target: T6, HEK293 cell lysates (proteome-wide targets of probe 9) (Homo sapiens, UniProt P60174); conditions: protein TPI1
T6 construct: endogenous in cells; host or cells: HEK293 cell lysate

[7] = target: T7, HEK293 cell lysates (proteome-wide targets of probe 9) (Homo sapiens, UniProt P07437); conditions: protein TUBB
T7 construct: endogenous in cells; host or cells: HEK293 cell lysate

[8] = target: T8, HEK293 cell lysates (proteome-wide targets of probe 9) (Homo sapiens, UniProt P22234); conditions: protein PAICS
T8 construct: endogenous in cells; host or cells: HEK293 cell lysate

[9] = target: T9, HEK293 cell lysates (proteome-wide targets of probe 9) (Homo sapiens, UniProt P61978); conditions: protein HNRNPK
T9 construct: endogenous in cells; host or cells: HEK293 cell lysate

[10] = target: T10, HEK293 cell lysates (proteome-wide targets of probe 9) (Homo sapiens, UniProt P10599); conditions: protein TXN
T10 construct: endogenous in cells; host or cells: HEK293 cell lysate

[11] = target: T11, HEK293 cell lysates (proteome-wide targets of probe 9) (Homo sapiens, UniProt P04075); conditions: protein ALDOA
T11 construct: endogenous in cells; host or cells: HEK293 cell lysate

[12] = target: T12, HEK293 cell lysates (proteome-wide targets of probe 9) (Homo sapiens, UniProt P55060); conditions: protein CSE1L
T12 construct: endogenous in cells; host or cells: HEK293 cell lysate

[13] = target: T13, HEK293 cell lysates (proteome-wide targets of probe 9) (Homo sapiens, UniProt Q12802); conditions: protein AKAP13
T13 construct: endogenous in cells; host or cells: HEK293 cell lysate

[14] = target: T14, HEK293 cell lysates (proteome-wide targets of probe 9) (Homo sapiens, UniProt P62805); conditions: protein HIST1H4A
T14 construct: endogenous in cells; host or cells: HEK293 cell lysate

[15] = target: T15, HEK293 cell lysates (proteome-wide targets of probe 9) (Homo sapiens, UniProt P23396); conditions: protein RPS3
T15 construct: endogenous in cells; host or cells: HEK293 cell lysate

[16] = target: T16, HEK293 cell lysates (proteome-wide targets of probe 9) (Homo sapiens, UniProt P11142); conditions: protein HSPA8
T16 construct: endogenous in cells; host or cells: HEK293 cell lysate

[17] = test system: HEK293 cell lysates (proteome-wide targets of probe 9)
[18] = target: T17, HEK293 cell lysates (proteome-wide targets of probe 9) (Homo sapiens, UniProt P59998); conditions: protein ARPC4
T17 construct: endogenous in cells; host or cells: HEK293 cell lysate

[19] = target: T18, HEK293 cell lysates (proteome-wide targets of probe 9) (Homo sapiens, UniProt P81605); conditions: protein DCD
T18 construct: endogenous in cells; host or cells: HEK293 cell lysate

[20] = target: T19, HEK293 cell lysates (proteome-wide targets of probe 9) (Homo sapiens, UniProt P53396); conditions: protein ACLY
T19 construct: endogenous in cells; host or cells: HEK293 cell lysate

[21] = target: T20, HEK293 cell lysates (proteome-wide targets of probe 9) (Homo sapiens, UniProt P46782); conditions: protein RPS5
T20 construct: endogenous in cells; host or cells: HEK293 cell lysate

[22] = target: T21, HEK293 cell lysates (proteome-wide targets of probe 9) (Homo sapiens, UniProt P62937); conditions: protein PPIA
T21 construct: endogenous in cells; host or cells: HEK293 cell lysate

[23] = target: T22, HEK293 cell lysates (proteome-wide targets of probe 9) (Homo sapiens, UniProt P10809); conditions: protein HSPD1
T22 construct: endogenous in cells; host or cells: HEK293 cell lysate

[24] = target: T23, HEK293 cell lysates (proteome-wide targets of probe 9) (Homo sapiens, UniProt Q13085); conditions: protein ACACA
T23 construct: endogenous in cells; host or cells: HEK293 cell lysate

[25] = target: T24, HEK293 cell lysates (proteome-wide targets of probe 9) (Homo sapiens, UniProt P62826); conditions: protein RAN
T24 construct: endogenous in cells; host or cells: HEK293 cell lysate

[26] = target: T25, HEK293 cell lysates (proteome-wide targets of probe 9) (Homo sapiens, UniProt P13639); conditions: protein EEF2
T25 construct: endogenous in cells; host or cells: HEK293 cell lysate

[27] = target: T26, HEK293 cell lysates (proteome-wide targets of probe 9) (Homo sapiens, UniProt Q9H6P5); conditions: protein TASP1 (Threonine aspartase 1)
T26 construct: endogenous in cells; host or cells: HEK293 cell lysate

[28] = target: T27, HEK293 cell lysates (proteome-wide targets of probe 9) (Homo sapiens, UniProt Q02878); conditions: protein RPL6
T27 construct: endogenous in cells; host or cells: HEK293 cell lysate

[29] = target: T28, HEK293 cell lysates (proteome-wide targets of probe 9) (Homo sapiens, UniProt P07814); conditions: protein EPRS
T28 construct: endogenous in cells; host or cells: HEK293 cell lysate

[30] = target: T29, HEK293 cell lysates (proteome-wide targets of probe 9) (Homo sapiens, UniProt P08758); conditions: protein ANXA5
T29 construct: endogenous in cells; host or cells: HEK293 cell lysate

[31] = protein HIST1H1C;HIST1H1E;HIST1H1D
[32] = protein group Histone H2A type 1 (HIST1H2AG and others)

T2 sequence (P49368 whole entry): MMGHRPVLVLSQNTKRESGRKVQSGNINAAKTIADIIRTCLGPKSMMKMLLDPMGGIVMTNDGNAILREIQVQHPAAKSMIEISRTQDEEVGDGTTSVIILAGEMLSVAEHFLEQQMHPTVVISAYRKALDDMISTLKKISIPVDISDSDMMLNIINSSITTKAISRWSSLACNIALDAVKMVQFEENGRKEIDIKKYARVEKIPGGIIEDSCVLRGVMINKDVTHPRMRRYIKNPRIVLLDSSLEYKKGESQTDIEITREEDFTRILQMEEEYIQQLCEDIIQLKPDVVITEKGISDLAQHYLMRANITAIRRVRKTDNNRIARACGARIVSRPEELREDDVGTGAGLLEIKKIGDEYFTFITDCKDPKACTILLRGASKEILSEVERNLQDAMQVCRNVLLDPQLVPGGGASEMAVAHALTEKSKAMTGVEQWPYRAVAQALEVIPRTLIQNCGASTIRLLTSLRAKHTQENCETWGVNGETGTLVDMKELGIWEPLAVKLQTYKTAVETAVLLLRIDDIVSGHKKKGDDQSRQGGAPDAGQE
T19 sequence (P53396 whole entry): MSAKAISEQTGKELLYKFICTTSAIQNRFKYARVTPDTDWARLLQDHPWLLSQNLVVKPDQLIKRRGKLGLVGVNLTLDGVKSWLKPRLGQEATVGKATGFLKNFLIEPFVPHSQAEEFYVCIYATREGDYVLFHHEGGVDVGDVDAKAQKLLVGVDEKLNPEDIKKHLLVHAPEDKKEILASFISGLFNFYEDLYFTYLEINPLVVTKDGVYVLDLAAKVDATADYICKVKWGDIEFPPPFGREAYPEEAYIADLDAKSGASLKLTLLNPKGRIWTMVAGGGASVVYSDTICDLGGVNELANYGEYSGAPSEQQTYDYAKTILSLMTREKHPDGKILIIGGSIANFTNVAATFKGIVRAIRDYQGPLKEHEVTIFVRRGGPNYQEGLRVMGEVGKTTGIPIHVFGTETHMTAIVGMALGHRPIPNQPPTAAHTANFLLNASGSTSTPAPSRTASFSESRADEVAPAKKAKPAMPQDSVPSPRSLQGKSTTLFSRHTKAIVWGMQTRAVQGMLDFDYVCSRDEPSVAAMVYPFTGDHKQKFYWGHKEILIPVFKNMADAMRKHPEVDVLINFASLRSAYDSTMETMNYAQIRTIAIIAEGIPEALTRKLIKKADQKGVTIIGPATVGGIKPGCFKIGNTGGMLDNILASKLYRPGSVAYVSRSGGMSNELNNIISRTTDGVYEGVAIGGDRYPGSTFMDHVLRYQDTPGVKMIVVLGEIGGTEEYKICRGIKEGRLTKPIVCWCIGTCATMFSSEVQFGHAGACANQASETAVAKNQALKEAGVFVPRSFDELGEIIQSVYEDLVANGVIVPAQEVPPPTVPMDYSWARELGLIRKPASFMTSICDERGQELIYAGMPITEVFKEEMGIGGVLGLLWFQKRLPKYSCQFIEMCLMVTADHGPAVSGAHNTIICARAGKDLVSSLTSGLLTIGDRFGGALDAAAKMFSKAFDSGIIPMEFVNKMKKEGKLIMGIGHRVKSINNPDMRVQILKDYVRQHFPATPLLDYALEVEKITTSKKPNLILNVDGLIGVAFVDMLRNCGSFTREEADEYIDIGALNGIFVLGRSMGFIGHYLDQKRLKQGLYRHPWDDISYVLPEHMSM
T8 sequence (P22234 whole entry): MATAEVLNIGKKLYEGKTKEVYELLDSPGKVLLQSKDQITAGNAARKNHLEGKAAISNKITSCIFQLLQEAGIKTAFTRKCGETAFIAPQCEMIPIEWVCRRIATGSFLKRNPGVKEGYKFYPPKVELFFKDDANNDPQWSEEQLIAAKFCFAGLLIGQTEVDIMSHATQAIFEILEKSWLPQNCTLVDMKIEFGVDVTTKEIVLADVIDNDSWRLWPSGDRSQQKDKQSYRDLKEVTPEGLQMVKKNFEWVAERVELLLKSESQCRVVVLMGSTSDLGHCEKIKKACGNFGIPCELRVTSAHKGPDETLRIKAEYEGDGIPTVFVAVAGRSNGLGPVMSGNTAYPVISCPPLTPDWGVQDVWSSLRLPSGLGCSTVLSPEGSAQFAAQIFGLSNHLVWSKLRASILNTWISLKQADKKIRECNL
T16 sequence (P11142 whole entry): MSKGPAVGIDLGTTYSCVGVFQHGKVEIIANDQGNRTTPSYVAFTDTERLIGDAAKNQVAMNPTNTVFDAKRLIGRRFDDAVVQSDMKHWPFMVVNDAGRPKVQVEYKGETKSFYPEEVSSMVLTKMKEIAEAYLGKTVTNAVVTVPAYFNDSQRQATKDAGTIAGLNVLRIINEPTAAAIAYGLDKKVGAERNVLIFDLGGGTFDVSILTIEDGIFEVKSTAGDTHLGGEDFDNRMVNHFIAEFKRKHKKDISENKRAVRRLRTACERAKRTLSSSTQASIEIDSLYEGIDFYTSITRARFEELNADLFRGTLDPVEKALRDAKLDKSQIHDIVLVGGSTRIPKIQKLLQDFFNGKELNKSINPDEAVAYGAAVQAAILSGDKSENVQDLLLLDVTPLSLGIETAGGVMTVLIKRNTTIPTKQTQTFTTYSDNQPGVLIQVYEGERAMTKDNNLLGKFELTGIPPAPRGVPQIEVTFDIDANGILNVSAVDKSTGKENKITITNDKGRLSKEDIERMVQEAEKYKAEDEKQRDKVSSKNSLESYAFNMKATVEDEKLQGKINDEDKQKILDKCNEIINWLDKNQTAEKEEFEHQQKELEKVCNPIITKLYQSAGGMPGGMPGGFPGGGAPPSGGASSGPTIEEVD
T11 sequence (P04075 whole entry): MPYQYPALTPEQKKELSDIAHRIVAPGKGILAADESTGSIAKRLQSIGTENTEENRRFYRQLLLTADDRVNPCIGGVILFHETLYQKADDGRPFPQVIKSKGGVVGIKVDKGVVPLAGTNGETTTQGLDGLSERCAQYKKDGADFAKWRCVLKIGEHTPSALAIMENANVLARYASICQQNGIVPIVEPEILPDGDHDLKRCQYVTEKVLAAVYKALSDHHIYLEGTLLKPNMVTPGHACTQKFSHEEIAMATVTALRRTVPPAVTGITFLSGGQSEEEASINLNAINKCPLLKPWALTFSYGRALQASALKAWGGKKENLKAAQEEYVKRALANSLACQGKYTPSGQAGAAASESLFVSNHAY
T6 sequence (P60174 whole entry): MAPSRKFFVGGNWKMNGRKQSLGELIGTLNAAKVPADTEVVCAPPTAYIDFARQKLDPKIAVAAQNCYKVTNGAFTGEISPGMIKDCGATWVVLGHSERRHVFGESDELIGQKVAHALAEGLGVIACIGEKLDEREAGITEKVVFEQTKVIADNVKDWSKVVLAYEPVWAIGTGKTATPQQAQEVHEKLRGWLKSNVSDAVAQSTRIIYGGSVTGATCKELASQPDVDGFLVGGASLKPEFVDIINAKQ
T28 sequence (P07814 whole entry): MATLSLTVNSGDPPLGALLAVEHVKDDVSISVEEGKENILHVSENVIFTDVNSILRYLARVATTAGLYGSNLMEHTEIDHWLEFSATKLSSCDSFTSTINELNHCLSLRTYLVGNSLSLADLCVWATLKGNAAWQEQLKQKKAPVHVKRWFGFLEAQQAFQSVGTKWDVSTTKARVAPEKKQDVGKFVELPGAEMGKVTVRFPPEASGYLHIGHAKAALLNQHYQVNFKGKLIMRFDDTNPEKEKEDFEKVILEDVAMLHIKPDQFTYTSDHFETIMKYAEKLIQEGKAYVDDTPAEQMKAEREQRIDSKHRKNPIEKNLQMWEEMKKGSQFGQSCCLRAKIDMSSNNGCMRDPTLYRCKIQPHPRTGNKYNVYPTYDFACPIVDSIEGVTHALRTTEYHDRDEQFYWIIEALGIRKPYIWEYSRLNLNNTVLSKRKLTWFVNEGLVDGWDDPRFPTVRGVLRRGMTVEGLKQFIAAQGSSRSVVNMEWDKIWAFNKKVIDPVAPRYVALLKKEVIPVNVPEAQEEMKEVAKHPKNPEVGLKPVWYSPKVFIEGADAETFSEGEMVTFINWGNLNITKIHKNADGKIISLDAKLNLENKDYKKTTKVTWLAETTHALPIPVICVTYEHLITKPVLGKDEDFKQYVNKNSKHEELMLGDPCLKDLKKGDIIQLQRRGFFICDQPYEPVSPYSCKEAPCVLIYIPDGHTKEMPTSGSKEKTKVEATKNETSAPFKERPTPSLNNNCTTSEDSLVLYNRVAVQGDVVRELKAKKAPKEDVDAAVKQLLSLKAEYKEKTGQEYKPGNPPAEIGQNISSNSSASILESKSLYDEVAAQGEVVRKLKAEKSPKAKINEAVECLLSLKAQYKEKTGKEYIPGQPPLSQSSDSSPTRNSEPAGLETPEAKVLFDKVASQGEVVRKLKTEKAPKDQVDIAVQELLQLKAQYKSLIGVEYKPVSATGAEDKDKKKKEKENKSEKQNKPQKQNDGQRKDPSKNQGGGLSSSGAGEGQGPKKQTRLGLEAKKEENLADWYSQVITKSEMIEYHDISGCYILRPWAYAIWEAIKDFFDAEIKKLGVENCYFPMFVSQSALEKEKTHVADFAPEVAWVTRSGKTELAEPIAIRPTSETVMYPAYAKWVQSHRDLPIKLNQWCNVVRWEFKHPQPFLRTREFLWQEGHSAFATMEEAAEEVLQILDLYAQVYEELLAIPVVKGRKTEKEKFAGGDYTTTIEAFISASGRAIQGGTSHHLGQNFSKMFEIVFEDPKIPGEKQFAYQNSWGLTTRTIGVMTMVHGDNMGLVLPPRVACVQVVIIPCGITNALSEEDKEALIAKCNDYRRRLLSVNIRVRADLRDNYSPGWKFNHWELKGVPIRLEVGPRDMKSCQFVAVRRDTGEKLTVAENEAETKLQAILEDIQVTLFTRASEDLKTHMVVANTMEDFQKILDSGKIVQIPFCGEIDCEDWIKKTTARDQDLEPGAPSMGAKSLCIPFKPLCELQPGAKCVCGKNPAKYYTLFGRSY
T18 sequence (P81605 20-110): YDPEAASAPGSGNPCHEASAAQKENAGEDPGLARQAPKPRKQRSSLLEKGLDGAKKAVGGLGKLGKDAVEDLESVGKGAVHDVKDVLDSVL

With `C#CCCCP(=O)(OCC)N1CCCC(N)C1=O.O=C(O)C(F)(F)F` (mixture of isomers) [Compound 9] the “Log2-fold change (9/DMSO)” value [1] was 0.9053, the “Log2-fold change (9/DMSO)” value [2] was 1.2654 and the “Log2-fold change (9/DMSO)” value [3] was 0.7412. The “Log2-fold change (9/DMSO)” value [4] was -0.2878, the “Log2-fold change (9/DMSO)” value [5] was 0.2647 and the “Log2-fold change (9/DMSO)” value [6] was 0.2166. The “Log2-fold change (9/DMSO)” value [7] was 1.741, the “Log2-fold change (9/DMSO)” value [8] was -0.1992 and the “Log2-fold change (9/DMSO)” value [9] was 0.1297. The “Log2-fold change (9/DMSO)” value [10] was 1.146, the “Log2-fold change (9/DMSO)” value [11] was 0.3187 and the “Log2-fold change (9/DMSO)” value [12] was 0.5768. For the same compound, the “Log2-fold change (9/DMSO)” value [13] was -0.9342, the “Log2-fold change (9/DMSO)” value [14] was -0.9831 and the “Log2-fold change (9/DMSO)” value [15] was 0.2732. For the same compound, the “Log2-fold change (9/DMSO)” value [16] was 0.1798, the “proteins significantly enriched by the alkyne probe” value ([17]; 10 µM probe, HEK293 lysates) was “significant enrichment of only two proteins, namely DPP9 and the off-target prolyl endopeptidase (PREP)” and the “Log2-fold change (9/DMSO)” value ([17]; protein EEF1A1;EEF1A1P5;EEF1A2) was 0.04533. For the same compound, the “Log2-fold change (9/DMSO)” value ([17]; protein EIF5A;EIF5AL1) was 1.278, the “Log2-fold change (9/DMSO)” value [17, 31] was 0.83 and the “Log2-fold change (9/DMSO)” value ([17]; protein HNRNPH1;HNRNPH2) was -0.1168. The “Log2-fold change (9/DMSO)” value ([17]; protein ID A0A1B0GV53) was -4.4932, the “Log2-fold change (9/DMSO)” value ([17]; protein NME1;NME2) was 0.34 and the “Log2-fold change (9/DMSO)” value ([17]; protein PABPC1;PABPC3) was 0.8323. The “Log2-fold change (9/DMSO)” value ([17]; protein PGAM1;PGAM2) was 1.799, the “Log2-fold change (9/DMSO)” value ([17]; protein TUBB4B;TUBB4A) was 1.386 and the “Log2-fold change (9/DMSO)” value [17, 32] was -1.664. For the same compound, the “Log2-fold change (9/DMSO)” value [18] was -0.5289, the “Log2-fold change (9/DMSO)” value [19] was -2.5876 and the “Log2-fold change (9/DMSO)” value [20] was 0.4032. For the same compound, the “Log2-fold change (9/DMSO)” value [21] was 0.2495, the “Log2-fold change (9/DMSO)” value [22] was 1.44 and the “Log2-fold change (9/DMSO)” value [23] was -1.284. For the same compound, the “Log2-fold change (9/DMSO)” value [24] was -0.276, the “Log2-fold change (9/DMSO)” value [25] was 0.5658 and the “Log2-fold change (9/DMSO)” value [26] was 0.2112. The “Log2-fold change (9/DMSO)” value [27] was -4.505, the “Log2-fold change (9/DMSO)” value [28] was 0.5143 and the “Log2-fold change (9/DMSO)” value [29] was 0.7172. The “Log2-fold change (9/DMSO)” value [30] was -0.9261.
With `CCCCCc1ccc(SCCP(=O)(OCC)N2CCC[C@H](N)C2=O)cc1.O=C(O)C(F)(F)F` (stereo partly shown) [Compound 16] the “Log2-fold change (16/9)” value [1] was -0.3832, the “Log2-fold change (16/9)” value [2] was -1.0355 and the “Log2-fold change (16/9)” value [3] was 0.07848. For the same compound, the “Log2-fold change (16/9)” value [4] was 0.4935, the “Log2-fold change (16/9)” value [5] was 0.4135 and the “Log2-fold change (16/9)” value [6] was -0.0839. The “Log2-fold change (16/9)” value [7] was -2.286, the “Log2-fold change (16/9)” value [8] was 0.0197 and the “Log2-fold change (16/9)” value [9] was -0.758. For the same compound, the “Log2-fold change (16/9)” value [10] was -0.6696, the “Log2-fold change (16/9)” value [11] was -0.5623 and the “Log2-fold change (16/9)” value [12] was 0.04384. For the same compound, the “Log2-fold change (16/9)” value [13] was 0.6936, the “Log2-fold change (16/9)” value [14] was 0.1177 and the “Log2-fold change (16/9)” value [15] was -0.6746. For the same compound, the “Log2-fold change (16/9)” value [16] was -0.08018, the “competition of labeling by probe 9” value ([17]; 50 µM competitor, 10 µM 9, HEK293 lysates) was “solely DPP9 was competed” and the “Log2-fold change (16/9)” value ([17]; protein EEF1A1;EEF1A1P5;EEF1A2) was -1.204. For the same compound, the “Log2-fold change (16/9)” value ([17]; protein EIF5A;EIF5AL1) was -2.135, the “Log2-fold change (16/9)” value [17, 31] was -0.04142 and the “Log2-fold change (16/9)” value ([17]; protein HNRNPH1;HNRNPH2) was 0.1964. For the same compound, the “Log2-fold change (16/9)” value ([17]; protein HSPA1A;HSPA1B) was -0.2164, the “Log2-fold change (16/9)” value ([17]; protein ID A0A1B0GV53) was 0.5692 and the “Log2-fold change (16/9)” value ([17]; protein NME1;NME2) was -0.08451. For the same compound, the “Log2-fold change (16/9)” value ([17]; protein PABPC1;PABPC3) was -0.421, the “Log2-fold change (16/9)” value ([17]; protein PGAM1;PGAM2) was -2.097 and the “Log2-fold change (16/9)” value ([17]; protein RPLP0;RPLP0P6) was -0.5558. The “Log2-fold change (16/9)” value ([17]; protein TUBB4B;TUBB4A) was -2.026, the “Log2-fold change (16/9)” value [17, 32] was 0.5881 and the “Log2-fold change (16/9)” value [18] was -0.1373. The “Log2-fold change (16/9)” value [19] was 2.05, the “Log2-fold change (16/9)” value [20] was -0.4196 and the “Log2-fold change (16/9)” value [21] was 0.301. The “Log2-fold change (16/9)” value [22] was -1.716, the “Log2-fold change (16/9)” value [23] was 0.04221 and the “Log2-fold change (16/9)” value [24] was 0.3401. The “Log2-fold change (16/9)” value [25] was -1.91, the “Log2-fold change (16/9)” value [26] was -0.2717 and the “Log2-fold change (16/9)” value [27] was 0.8543. The “Log2-fold change (16/9)” value [28] was 0.35, the “Log2-fold change (16/9)” value [29] was -0.09528 and the “Log2-fold change (16/9)” value [30] was 0.8558.
